From patent US20210170033A1, “NOVEL CONJUGATES OF A PHARMACEUTICAL AGENT AND A MOIETY CAPABLE OF BINDING TO A GLUCOSE SENSING PROTEIN” (SANOFI, priority 2017, published 2021)
pIC50: −log10 of the molar value. Like-named read-outs stand apart in the source and are kept apart here.

Assays:
A2780 cells = experiment: Deoxy-glucose uptake assay in A2780 cells (14C 2-deoxy-D-glucose transport); type: cell-based; details: Homo sapiens; for pIC50: 20 min, inhibition of 14C 2-deoxy-D-glucose transport into A2780 cells, 20 min compound incubation, read-out: IC50
Protocol: 1. Deoxy-Glucose Uptake Assay in A2780 Cells:
For measurement of ^14C 2-deoxy-D-glucose transport into A2780 cells, cells were seeded in 96-well plates (Cytostar-T Plates Perkin Elmer, 70,000 cells/180 μl/well) in medium complete (RPMI1640+Glutamax (Life technologies #61870)) and grown for 48 hours. After 48 h, cells were washed once with 180 μL KRB (Krebs Ringer Bicarbonate) buffer, and stimulated in a dose dependent manner by adding 10 μL of test compound dilution 0-1.1 mM (11 times higher concentration than final) or 10 μL of 1.1 mM Cytochalasin B solution as negative control, to 90 μL KRB buffer and incubated for 20 minutes. After compound stimulation, the transport of ^14C 2-deoxy-D-glucose was started by adding of 50 μL 2-^14C[U] 2-deoxy-D-glucose solution (109.1 μM 2-deoxy-D-glucose cold and 33 μM 2-^14C[U] 2-deoxy-D-glucose 0.1 μCi/well) for 20 minutes. Transport was stopped by adding 50 μL/well 96 μM Cytochalasin B solution. Plates were measured in a 96-well Wallac Microbeta device. The cpm (counts per minute) values were used to determine the % inhibition values for the test compounds within each experiment. In a first step, the mean background value generated by Cytochalasin B (a potent glucose transporter inhibitor) treated cells, was subtracted from the mean values of the treated cells. All mean values were obtained from triplicates. For %-Inhibition results, the mean value of the untreated cells (just KRB) was set as 100%. All other mean values were calculated to this relation. IC50 were obtained by regression analysis of dose response curve with 7 or 14 concentrations, respectively, for each compound.

[1] = system: A2780 Human Carcinoma Cells; experiment: Glucose displacement assay (ATP measurement, CellTiter-Glo); type: cell-based; details: ATP measurement in A2780 cells, 0.5 μM rotenone
Protocol: 2. Glucose Displacement Assay (ATP Measurement)
30,000 A2780 Human Carcinoma Cells are seeded per well in a Greiner 96-well plate. Cells are expanded and cultured in RPMI 1640 medium+GlutaMAX® with 10% FCS and 11 mM glucose, at 37° C. with 5% CO2. After 44 h, culture media is changed and washed once with PBS to starvation media consisting of RPMI 1640 medium with 1% FCS without glucose for 2 hours. Cells are then washed with KRB buffer, followed by incubation for 20 min at 37° C. of the treatment mix consisting of 60 μL KRB buffer/well and 10 μL of compound or DMSO 10×. 10 μl of rotenone is added to the mix to a final concentration of 0.5 μM. Cell plates are left for 2 min at room temperature. 20 μL of different glucose concentrations are added to the mix—typically 0.1 to 10 mM range—.
Cells are incubated for another 15 min at 37° C., before measuring ATP with the CellTiter-Glo® Assay, under manufacturer's guidance, but without the equilibration step at room temperature for 30 min. In brief, 100 μl of Cell-Titer-Glo® Reagent is added to the wells containing already 100 μl of the previous reaction mix. Plates are mixed for 2 min at 800 rpm, followed by incubation at room temperature for 10 min to stabilize the luminescent signal. Luminescence is then recorded with the Tekan Ultra Evolution reader.

[2] = 1 mM glucose, read-out: IC50 [μM] at 1 mM glucose
[3] = 10 mM glucose, read-out: IC50 [μM] at 10 mM glucose

pIC50 (A2780 cells) | SMILES | other results
4.54 | COc1cc(C(=O)OC[C@H]2O[C@H](OC)[C@H](O)[C@@H](O)[C@@H]2O)cc(Cl)c1OCc1cccc(NC(=O)OC(C)(C)C)c1 [Example 20] | IC50 [1, 2]: 12.7 µM; IC50 [1, 3]: 33.9 µM
5.66 | CO[C@H]1O[C@H](CO)[C@@H](O)[C@H](O)[C@H]1OC(=O)c1cc(Cl)c(OCc2nc3ccccc3n2Cc2ccccc2Cl)c(Cl)c1 [Example 116] | IC50 [1, 2]: 16.7 µM; IC50 [1, 3]: 104 µM
5.35 | C#CCCCn1c(COc2c(Cl)cc(C(=O)N[C@H]3[C@@H](OC)O[C@H](CO)[C@@H](O)[C@@H]3O)c(C)c2Cl)nc2ccccc21 [Example 201] | IC50 [1, 2]: 0.393 µM; IC50 [1, 3]: 2.4 µM
5.08 | C#CCCC(=O)Nc1cccc(COc2c(Cl)cc(C(=O)O[C@H]3[C@@H](OC)O[C@H](CO)[C@@H](O)[C@@H]3O)c(C)c2Cl)c1 [Example 206] | IC50 [1, 2]: 1.7 µM; IC50 [1, 3]: > 10 µM
 | COc1cc(C(=O)O[C@H]2[C@@H](OC)O[C@H](CO)[C@@H](O)[C@@H]2O)cc(Cl)c1OCc1cccc(NC(=O)CCc2cc(C)nn2C)c1 [Example 313] | IC50 [1, 2]: 3.2 µM; IC50 [1, 3]: 18.8 µM
6.15 | COC(=O)[C@H](CCCCNC(=O)CCCCCCC(=O)Nc1cccc(COc2cc(OC)c(C(=O)O[C@H]3[C@@H](OC)O[C@H](CO)[C@@H](O)[C@@H]3O)cc2Cl)c1)NC(=O)OC(C)(C)C [Example 414] | 
4.82 | COc1cc(OCc2nc3ccccc3n2CCCCCCCCCCCCCCCC(=O)O)c(Cl)cc1C(=O)N[C@H]1[C@@H](OC)O[C@H](CO)[C@@H](O)[C@@H]1O [Example 421] | 
4.22 | COc1cc(OCc2cccc(CNC(=O)CCCCCCCCC(=O)OC(C)(C)C)c2)c(Cl)cc1C(=O)N[C@H]1[C@@H](OC)O[C@H](CO)[C@@H](O)[C@@H]1O [Example 427] | 
5.36 | COc1cc(OCc2cccc(NC(=O)CCC(=O)OC(C)(C)C)c2)c(Cl)cc1C(=O)N[C@H]1[C@@H](OC)O[C@H](CO)[C@@H](O)[C@@H]1O [Example 428] | 
5.54 | COc1cc(OCc2cccc(NC(=O)CCCC(=O)OC(C)(C)C)c2)c(Cl)cc1C(=O)N[C@H]1[C@@H](OC)O[C@H](CO)[C@@H](O)[C@@H]1O [Example 429] | 
5.21 | COc1cc(OCc2cccc(NC(=O)CCCCCCCCC(=O)OC(C)(C)C)c2)c(Cl)cc1C(=O)N[C@H]1[C@@H](OC)O[C@H](CO)[C@@H](O)[C@@H]1O [Example 431] | 
4.34 | COC(=O)[C@H](CCCCNC(=O)CCC(=O)NCc1cccc(COc2cc(OC)c(C(=O)N[C@H]3[C@@H](OC)O[C@H](CO)[C@@H](O)[C@@H]3O)cc2Cl)c1)NC(=O)OC(C)(C)C [Example 435] | 
4.47 | COC(=O)[C@H](CCCCNC(=O)CCCC(=O)NCc1cccc(COc2cc(OC)c(C(=O)N[C@H]3[C@@H](OC)O[C@H](CO)[C@@H](O)[C@@H]3O)cc2Cl)c1)NC(=O)OC(C)(C)C [Example 436] | 
4.51 | COc1c(C(=O)N[C@H]2[C@H](OC)O[C@H](CO)[C@@H](O)[C@@H]2O)cc(Cl)c(OCc2cccc(CNC(=O)OC(C)(C)C)c2)c1Cl [Example 447] | 
4.73 | CO[C@H]1O[C@H](CO)[C@@H](O)[C@H](O)[C@H]1NC(=O)c1cc(Cl)c(OCc2cccc(CNC(=O)CCC(=O)OC(C)(C)C)c2)c(Cl)c1C [Example 449] | 
4.59 | CO[C@H]1O[C@H](CO)[C@@H](O)[C@H](O)[C@H]1NC(=O)c1cc(Cl)c(OCc2cccc(CNC(=O)CCCC(=O)OC(C)(C)C)c2)c(Cl)c1C [Example 450] | 
4.59 | CO[C@H]1O[C@H](CO)[C@@H](O)[C@H](O)[C@H]1NC(=O)c1cc(Cl)c(OCc2cccc(NC(=O)CCCCCCC(=O)OC(C)(C)C)c2)c(Cl)c1C [Example 454] | 
4.60 | CO[C@H]1O[C@H](CO)[C@@H](O)[C@H](O)[C@H]1OC(=O)c1cc(Cl)c(OCc2cccc(CNC(=O)CCCCCCCCC(=O)OC(C)(C)C)c2)c(Cl)c1C [Example 456] | 
4.50 | COc1cc(OCc2cccc(CNC(=O)CCCCCCC(=O)NCCCCCC(=O)OC(C)(C)C)c2)c(Cl)cc1C(=O)N[C@H]1[C@@H](OC)O[C@H](CO)[C@@H](O)[C@@H]1O [Example 457] | 

pIC50 (A2780 cells) | SMILES | other results
4.07 | COC(=O)[C@H](CCCCNC(=O)CCCC(=O)NCc1cccc(COc2c(Cl)cc(C(=O)N[C@H]3[C@@H](OC)O[C@H](CO)[C@@H](O)[C@@H]3O)c(C)c2Cl)c1)NC(=O)OC(C)(C)C [Example 460] | 
4.60 | COC(=O)[C@H](CCCCNC(=O)CCCC(=O)Nc1cccc(COc2c(Cl)cc(C(=O)N[C@H]3[C@@H](OC)O[C@H](CO)[C@@H](O)[C@@H]3O)c(C)c2Cl)c1)NC(=O)OC(C)(C)C [Example 463] | 
4.36 | COC(=O)[C@H](CCCCNC(=O)CCCCCCC(=O)Nc1cccc(COc2c(Cl)cc(C(=O)N[C@H]3[C@@H](OC)O[C@H](CO)[C@@H](O)[C@@H]3O)c(C)c2Cl)c1)NC(=O)OC(C)(C)C [Example 464] | 
4.30 | COC(=O)[C@H](CCCCNC(=O)CCCCCCCCC(=O)Nc1cccc(COc2c(Cl)cc(C(=O)N[C@H]3[C@@H](OC)O[C@H](CO)[C@@H](O)[C@@H]3O)c(C)c2Cl)c1)NC(=O)OC(C)(C)C [Example 465] | 
5.47 | COc1cc(OCc2cccc(NC(=O)CCCCCCC(=O)NCCCCCC(=O)OC(C)(C)C)c2)c(Cl)cc1C(=O)N[C@H]1[C@@H](OC)O[C@H](CO)[C@@H](O)[C@@H]1O [Example 466] | 
4.55 | COc1cc(OCc2cccc(NC(=O)CCCCCCCCC(=O)NCCCCCC(=O)OC(C)(C)C)c2)c(Cl)cc1C(=O)N[C@H]1[C@@H](OC)O[C@H](CO)[C@@H](O)[C@@H]1O [Example 467] | 
4.56 | COC(=O)[C@H](CCCCNC(=O)CCCCCNC(=O)CCCCCCC(=O)NCc1cccc(COc2cc(OC)c(C(=O)N[C@H]3[C@@H](OC)O[C@H](CO)[C@@H](O)[C@@H]3O)cc2Cl)c1)NC(=O)OC(C)(C)C [Example 468] | 
4.21 | COC(=O)CCCCCCCn1c(COc2cc(OC)c(C(=O)N[C@H]3[C@@H](OC)O[C@H](CO)[C@@H](O)[C@@H]3O)cc2Cl)nc2ccccc21 [Example 470] | 
> 7.00 | COc1cc(OCc2coc(-c3ccc(C(F)(F)F)cc3)n2)c(Cl)cc1C(=O)O[C@H]1[C@@H](OC)O[C@H](CO)[C@@H](O)[C@@H]1O [Example 473] | 
> 7.00 | COc1cc(OCc2coc(-c3ccc(Cl)cc3)n2)c(Cl)cc1C(=O)O[C@H]1[C@@H](OC)O[C@H](CO)[C@@H](O)[C@@H]1O [Example 474] | 
> 7.00 | COc1cc(OCc2cnc(-c3ccc(Cl)cc3)o2)c(Cl)cc1C(=O)O[C@H]1[C@@H](OC)O[C@H](CO)[C@@H](O)[C@@H]1O [Example 475] | 
> 7.00 | COc1cc(OCc2ccc(-c3csnn3)cc2)c(Cl)cc1C(=O)O[C@H]1[C@@H](OC)O[C@H](CO)[C@@H](O)[C@@H]1O [Example 476] | 
5.43 | COc1cc(OCc2nnc(-c3ccc(Cl)cc3)s2)c(Cl)cc1C(=O)O[C@H]1[C@@H](OC)O[C@H](CO)[C@@H](O)[C@@H]1O [Example 477] | 
6.62 | COc1cc(OCc2sc(C)nc2C(F)(F)F)c(Cl)cc1C(=O)O[C@H]1[C@@H](OC)O[C@H](CO)[C@@H](O)[C@@H]1O [Example 478] | 
> 7.00 | COc1cc(OCc2ccc(-c3nccs3)cc2)c(Cl)cc1C(=O)O[C@H]1[C@@H](OC)O[C@H](CO)[C@@H](O)[C@@H]1O [Example 479] | 
5.34 | COc1cccc(COc2cc(OC)c(C(=O)O[C@H]3[C@@H](OC)O[C@H](CO)[C@@H](O)[C@@H]3O)cc2Cl)n1 [Example 480] | 
6.22 | COc1cc(OCc2nc3ccccc3n2Cc2ccccc2)c(Cl)cc1C(=O)O[C@H]1[C@@H](OC)O[C@H](CO)[C@@H](O)[C@@H]1O [Example 481] | 
4.44 | COc1cc(OCc2cnc(OC)c(NCC(=O)O)c2)c(Cl)cc1C(=O)N[C@H]1[C@@H](OC)O[C@H](CO)[C@@H](O)[C@@H]1O [Example 483] | 
 | O=C(NC[C@@H]1O[C@H](CO)[C@@H](O)[C@H](O)[C@H]1O)c1ccc(COc2ccccc2)o1 [Example 490] | inhibition at 100 µM (A2780 cells; inhibition of 14C 2-deoxy-D-glucose transport into A2780 cells at 100 μM, read-out: % inh. at 100 μM): 20%
